Measured values from article PMC12108179, “Porcine β-Defensin 2 Expressed in Pichia pastoris Alleviates Enterotoxigenic Escherichia coli-Induced Intestinal Injury and Inflammatory Response in Mice” (Animals : an Open Access Journal from MDPI, 2025).
Where no end group is shown, it is not given here.

Experiments:
ETEC7 [1] = assay: ETEC7-infected mouse model: clinical symptoms (body weight, diarrhea score, intestine/carcass ratio, cecum index); format: in vivo, ICR mice; conditions: 9000 U orally for 7 days, n = 6/group
Description: (§1) The animal experiment was approved by the Animal Ethics and Welfare Committee of Huazhong Agricultural University, Wuhan, China (HZAUMO-2023-0264). The animal model was established as in our previous experiment. Female ICR mice (3–4 weeks old) were obtained from the Laboratory Animals Center of Huazhong Agricultural University. After 5 days of adaptation, 36 mice were randomly assigned into 6 groups (n = 6/group), namely, a control group (only phosphate-buffered saline (PBS) treatment), the ETEC7 group (ETEC7 and PBS treatment), the COL group (ETEC7 and 9000 U colistin sulfate treatment), the HP group (ETEC7 and 16 AU rPBD2 treatment), the MP group (ETEC7 and 8 AU rPBD2 treatment), and the LP group (ETEC7 and 4 AU rPBD2 treatment). The mice were fed antibiotics, including kanamycin (400 mg/L), gentamicin (35 mg/L), vancomycin (45 mg/L), metronidazole (215 mg/L), and colistin (850 U/mL), in drinking water for 72 h and were then fed normal water for another 24 h. All mice were fasted for 12 h and then were orally gavaged with 200 μL 3% NaHCO3 30 min prior to the challenge with 10^9 CFU of ETEC7. The mice were orally infected with ETEC7 once a day for 3 days. […] The control and ETEC7 groups were administrated with the same volume of PBS. All mice were treated with PBS, colistin sulfate, or rPBD2 for 7 continuous days.
(§2) Body weight change was calculated as ((final body weight − initial body weight)/initial body weight) × 100%. Diarrhea scores were recorded at 1, 3, 5, and 7 days post infection (dpi) based on the following scoring criteria: (1) normal stool: 0 point; (2) color change/consistency: 1 point; (3) presence of wet tail or mucosa: 2 points; (4) watery stool: 3 points. A score of 1 was considered diarrhea. Fresh stools and 1 cm colon were collected and suspended in sterile PBS. Ten-fold serial dilutions of stool or colon homogenate were plated on MacConkey plates containing 100 μg/mL ampicillin. […] Intestine water content (intestine/carcass ratio) was measured as described previously. The cecum index was calculated as cecum weight (g)/body weight (g). […]

E. coli K88 = assay: ETEC7-infected mouse model: E. coli loads in stool and colon; format: in vivo; conditions: ETEC7-infected ICR mice, COL group, 9000 U orally for 7 days, p < 0.05, n = 6/group
Description: The animal experiment was approved by the Animal Ethics and Welfare Committee of Huazhong Agricultural University, Wuhan, China (HZAUMO-2023-0264). The animal model was established as in our previous experiment. Female ICR mice (3–4 weeks old) were obtained from the Laboratory Animals Center of Huazhong Agricultural University. After 5 days of adaptation, 36 mice were randomly assigned into 6 groups (n = 6/group), namely, a control group (only phosphate-buffered saline (PBS) treatment), the ETEC7 group (ETEC7 and PBS treatment), the COL group (ETEC7 and 9000 U colistin sulfate treatment), the HP group (ETEC7 and 16 AU rPBD2 treatment), the MP group (ETEC7 and 8 AU rPBD2 treatment), and the LP group (ETEC7 and 4 AU rPBD2 treatment). […]
as §2, with “points.” for “points. A score of 1 was considered diarrhea. Fresh stools and 1 cm colon were collected and suspended in sterile PBS. Ten-fold serial dilutions of stool or colon homogenate were plated on MacConkey plates containing 100 μg/mL ampicillin.”

ETEC7 [2] = assay: ETEC7-infected mouse model: ileum morphology (HE staining); format: in vivo; conditions: ETEC7-infected ICR mice, 7 dpi, n = 6/group
Description: as §1, §2

IL-10 = assay: ETEC7-infected mouse model: serum cytokine ELISA; format: in vivo; conditions: ETEC7-infected ICR mice, 9000 U orally for 7 days, 7 dpi, among the groups, p > 0.05, n = 6/group
Description: as §1, §2

IL-6 = assay: ETEC7-infected mouse model: serum cytokine ELISA; format: in vivo; conditions: ETEC7-infected ICR mice, 9000 U (COL group) orally for 7 days, 7 dpi, p < 0.05, n = 6/group
Description: as §1, §2

TNF-α = assay: ETEC7-infected mouse model: serum cytokine ELISA; format: in vivo; conditions: ETEC7-infected ICR mice, 9000 U (COL group) orally for 7 days, 7 dpi, p < 0.05, n = 6/group
Description: as §1, §2

[3] = in the presence of 150 mM NaCl or 2.5 mM CaCl2; cited from earlier work
Description: It has been reported that PBD2 has antibacterial activity against Gram-positive and -negative bacteria. […] When AMPs are used in the animal industry, many factors, including temperature, pH, enzymes, and salt ions, may affect their activities. […] This may allow crude rPBD2 to endure the ...

[4] = 9000 U (COL group) orally for 7 days, p < 0.05

colistin sulfate
diarrhea scores (ETEC7 [1]; ETEC7-infected ICR mice, 1, 3, 5, 7 dpi, vs ETEC7 group): relative lower diarrhea scores but without significant differences
cecum index (ETEC7 [1]; ETEC7-infected ICR mice, 7 dpi, among the groups): no significant differences
final body weight (ETEC7 [1]; female ICR mice, ETEC7 10^9 CFU orally once a day for 3 days, 7 dpi, among groups, p > 0.05): no significant differences
colonized numbers of E. coli K88 in the colon (E. coli K88; 7 dpi): lower than those in the ETEC7 group
bacterial loads in feces (E. coli K88; vs ETEC7 group): significantly decreased
VH/CD (villus height/crypt depth, ileum) (ETEC7 [2]; [4]): significantly increase
villus height (ileum) (ETEC7 [2]; [4]): significantly increase
crypt depth (ileum) (ETEC7 [2]; 9000 U orally for 7 days, among the groups, p > 0.05): no significant differences
serum IL-10 levels (IL-10): no significant differences
serum IL-6 levels (IL-6): could decrease the levels of IL-6
serum TNF-α levels (TNF-α): significantly decrease

synthetic human β-defensin 3 (hBD-3): synthetic human β-defensin 3, literature comparison (GIINTLQKYYCRVRGGRCAVLSCLPKEEQIGKCSTRGRKCCRRKK; ends and bridges not checked; cysteine pairing not given here; UniProt P81534 23-67, looked up)
antibacterial activity in the presence of salts [3]: completely abolished
